The subject of assay [1] is HUMAN RSV-A (“LONG” STRAIN). As to the kind of experiment: RSV-A assay (CPE, ATPlite) in Hep-2 cells. Format: cell-based. Conditions: human respiratory syncytial virus, 120 h, MOI 0.1, 5-day incubation. In outline:
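Protection from RSV cytopathic effect read by ATP luminescence (ATPlite) after 5-day culture. Genotype A "Long" virus added at MOI 0.1 to Hep-2 monolayers at 8,000 cells/well, pre-dosed with duplicate 2-fold compound dilutions; controls include infected untreated and uninfected wells. EC50 values binned into ranges.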
For orientation: In ATP-based viability assays light output follows the ATP content of the culture.

In a further assay the test system is hMPV A2 TN/94-49. As to the kind of experiment: HMPV antiviral assay Method 1 (LLC-MK2 cells, ATP-Lite). Format: cell-based. Conditions: hMPV A2 TN/94-49, LLC-MK2 cells. On the procedure:
In vitro HMPV antiviral activity was evaluated using the clinical isolate A2 strain TN 94-49 (obtained from Dr. John Williams, Vanderbilt University, Tennessee) and […] cells (ATCC #CCL-7), an immortalized kidney epithelial cell line from Macaca mulatta. Compounds were resuspended in dimethyl sulfoxide (DMSO) at 10 mM, serially diluted and added to a 384-well source plate. Subsequently, the compounds were diluted and transferred onto 384-well assay plates using the Echo-650 automated liquid handling system (Beckman Coulter, Indiana). The test compounds were assessed in duplicate at a top concentration of 2 μM followed by 2.5-fold serial dilutions to give a total of 10 concentration points. DMSO control wells were also included on the assay plates and were either infected or not, acting as positive and negative controls. A2 TN 94-49 virus infections were performed in-suspension with LLC-MK2 cells. The cells were washed twice with PBS and removed from the cell-culture flask with 0.25% trypsin-EDTA (Thermo Fisher Scientific, MA). The trypsin-EDTA was inactivated by resuspending in 2% fetal bovine serum (FBS) and OptiMEM (ThermoFisher Scientific, MA) containing 1% penicillin-streptomycin. Cells were pelleted by centrifuging for 5 minutes at 800 rpm, the supernatant was removed, and cells were re-suspended and washed in PBS plus 100 μg/mL CaCl2). This step was performed twice. Cells were then re-suspended in serum-free (SF)-OptiMEM containing 4 μg/mL TPCK-Trypsin (Sigma Aldrich, MO), 1% penicillin-streptomycin (ThermoFisher Scientific, MA) and 100 μg/mL CaCl2). Cells were counted and seeded at a density of 5,000 cells/well, 12.5 μL/well. Virus infections were done at a multiplicity of infection (MOI) of 0.005 with 12.5 μL added per well. Virus infections were performed in infection media which contained SF-OptiMEM, 100 μg/mL CaCl2) and 1% penicillin-streptomycin. HMPV viral stocks are suspended in infection media+5% glycerol, thus an equal volume of infection media+5% glycerol was added to uninfected wells to equalize the final % glycerol across all wells of the assay plate. The final concentration of TPCK-trypsin was 2 μg/mL. The assay plates were incubated at 37° C., 5% CO2 for 7 days. After 7 days incubation, 12.5 μL of ATP-Lite (PerkinElmer, MA) was added to each well and the raw luminescence values were determined using the Envision 2104 (Perkin Elmer, MA). The average of the raw luminescence values for the cells and virus only positive control wells was subtracted from all conditions tested and the percent cell health was determined by dividing these values by the average of the cells only negative control wells. EC50 values were then calculated by non-linear regression using a four-parameter curve logistic equation. The curve fit model employed was XLFit Dose Response One Site Model 200: y=(A+(B/(1+((x/C)^D)))), where A is the minimum y value, B is the maximum y value, C is the log EC50value, and D is the slope factor. Method 2: In Vitro HMPV Antiviral Activity was Evaluated Using the Clinical Isolate A2 Strain TN 94-49

Structures are written as SMILES.

As usually defined, the EC50 is the concentration at which the effect is half-maximal. A higher EC50 goes with a less potent agent.

With `[2H]c1nc2c(OC(F)F)cc(C(=O)NC[C@@](O)(c3ccccc3)c3cc4c(c(-c5cc(Cl)c(F)cc5F)n3)OC[C@]4(C)C(N)=O)cc2cc1C([2H])([2H])[2H]` [Example 217], the EC50 in assay [1] is below 200 nM; in the assay with hMPV A2 TN/94-49, below 500 nM.

For the compound `COc1cc(C(=O)NC[C@](O)(c2cc3c(c(-c4cc(C)cc(F)c4F)n2)OC[C@]3(C)C(N)=O)C2CC2)cc2cn(C3CC3)nc12` [Example 49], the EC50 in assay [1] was below 200 nM; with hMPV A2 TN/94-49 it was above 500 nM.

On to `COc1cc(C(=O)NC[C@@](O)(c2ccsc2)c2cc3c(c(-c4cc(F)c(F)cc4F)n2)OC[C@]3(C)C(N)=O)cc2cn(C3CC3)nc12` [Example 177], for which the EC50 in assay [1] was below 200 nM; in the assay on hMPV A2 TN/94-49, below 500 nM.

Take `C[C@]1(C(N)=O)COc2c1cc([C@@](O)(CNC(=O)c1cc(OC3CC3)c3nn(C4CC4)cc3c1)c1ccccc1)nc2-c1ccc2c(c1Cl)OC(F)(F)O2` [Example 252]: the EC50 in assay [1] was below 200 nM; in the assay with hMPV A2 TN/94-49, below 500 nM.

For the compound `COc1cc(C(=O)NCC(O)(c2csc(Cl)c2)c2cc3c(c(-c4cc(Cl)c(F)cc4F)n2)OC[C@]3(C)C(N)=O)cc2cn(C3CC3)nc12` (some centres unmarked) [Example 471], the EC50 was below 200 nM in assay [1] and below 500 nM in the assay on hMPV A2 TN/94-49.

With `COc1cc(C(=O)NC[C@@](O)(c2cc3c(c(-c4cc(Cl)c(F)cc4F)n2)OC[C@]3(C)C(N)=O)c2cnn[nH]2)cc2cn(C3CC3)nc12` [Example 181], the EC50 in assay [1] was above 200 nM; in the assay with hMPV A2 TN/94-49, above 500 nM.

For `COc1cc(C(=O)NC[C@@](O)(c2ccc(F)cc2)c2cc3c(c(-c4ccc(F)c(Cl)c4Cl)n2)OC[C@]3(C)C(N)=O)cc2cc(Cl)c(C)nc12` [Example 44], the EC50 in assay [1] is below 200 nM; in the assay on hMPV A2 TN/94-49, below 500 nM.

Turning to `COc1cc(C(=O)NC[C@](O)(c2cc3c(c(-c4cc(Cl)c(F)cc4F)n2)OC[C@]3(C)C(N)=O)c2cnn[nH]2)cc2cn(C3CC3)nc12` [Example 180], the EC50 is below 200 nM in assay [1] and above 500 nM with hMPV A2 TN/94-49.

Take `COc1cc(C(=O)NC[C@@](O)(c2ccccc2)c2cc3c(c(-c4ccc(F)c(Cl)c4Cl)n2)OC[C@]3(C)C(N)=O)cc2cn(C3CC3)nc12` [Example 257]: the figures for the EC50 (in assay [1]; with hMPV A2 TN/94-49) were below 200 nM and below 500 nM, respectively.

On to `Cc1nc2ccc(C(=O)NC[C@@](O)(c3ccccc3)c3cc4c(c(-c5ccc(F)c(Cl)c5Cl)n3)OC[C@]4(C)C(N)=O)cc2o1` [Example 267], for which the EC50 in assay [1] is below 200 nM; in the assay with hMPV A2 TN/94-49, below 500 nM.

On to `[2H]C([2H])([2H])c1nc2c(OC)cc(C(=O)NC[C@@](O)(c3cccc(F)c3)c3cc4c(c(-c5ccc(F)c(Cl)c5Cl)n3)OC[C@]4(C)C(N)=O)cc2s1` [Example 272], for which the results for the EC50 (in assay [1]; in the assay on hMPV A2 TN/94-49) were below 200 nM and below 500 nM, respectively.

Take `COc1cc(F)ccc1-c1nc([C@@](O)(CNC(=O)c2cc(OC)c3nn(C4CC4)cc3c2)C2CC2)cc2c1OC[C@]2(C)C(N)=O` [Example 67]: the results for the EC50 (in assay [1]; with hMPV A2 TN/94-49) were below 200 nM and above 500 nM, respectively.

On to `COc1cc(C(=O)NC[C@@](O)(c2ccccc2)c2cc3c(c(-c4ccc5c(c4Cl)OC(F)(F)O5)n2)OC[C@]3(C)C(N)=O)cc2cn(C3CC3)nc12` [Example 251], for which the EC50 in assay [1] is below 200 nM; with hMPV A2 TN/94-49, below 500 nM.

Take `COc1cc(C(=O)NC[C@@](O)(c2ccsc2)c2cc3c(c(-c4cc(Cl)c(F)cc4F)n2)OC[C@]3(C)C(N)=O)cc2cn(C3CC3)nc12` [Example 173]: the EC50 in assay [1] is below 200 nM; in the assay on hMPV A2 TN/94-49 it was below 500 nM.

Regarding `Cc1nc2ccc(C(=O)NC[C@@](O)(c3cccc(F)c3)c3cc4c(c(-c5ccc6c(c5Cl)OC(F)(F)O6)n3)OC[C@]4(C)C(N)=O)cc2o1` [Example 284], the EC50 was below 200 nM in assay [1] and below 500 nM with hMPV A2 TN/94-49.

`COc1cc(C(=O)NC[C@@](O)(c2ccc(F)cc2)c2cc3c(c(-c4ccc5c(c4Cl)OC(F)(F)O5)n2)OC[C@]3(C)C(N)=O)cc2cc(C(F)(F)F)cnc12` [Example 26]: the values for the EC50 (in assay [1]; in the assay on hMPV A2 TN/94-49) were below 200 nM and above 500 nM, respectively.

The record behind these values is US12358921B2, “Antiviral heterocyclic compounds” (priority 2022, dated 2025).
